Laboratory results reported in patent US11542262B2, “Phosphatidylinositol 3-kinase inhibitors” (NANJING ZHENGXIANG PHARMACEUTICALS CO., LTD., priority 2019, dated 2023).
In brackets after ≈: the same amount, converted by molar mass.

Assays:
[1] = Kinetic solubility test in PBS pH7.4; type: physicochemical; details: for solubility at 2 h: aqueous buffer, kinetic from dmso stock, PBS pH 7.4, 25° C.
Method: 15 μL of stock solution (10 mM) was placed in order into their proper 96-well rack. 485 μL of PBS pH7.4 was added into each vial of the cap-less Solubility Sample plate. The assay was performed in singlet. Add one stir stick to each vial and seal using a molded PTFE/Silicone plug. […] After completion of the 2 hours, the samples from the Solubility Sample plate were transferred into the filter plate. all the samples were filtered using the Vacuum Manifold. Aliquot of 5 μL was taken from the filtrate followed by addition of 495 μL of a mixture of H2O and acetonitrile containing internal standard (1:1). A certain proportion of ultrapure water was used to dilute the diluent according to the peak shape. The dilution factor was changed according to the solubility values and the LC-MS signal response.
Preparation of 3 μM standards (STD): From the 10 mM DMSO STD plate, 6 μL was transferred into the remaining empty plate, and then 194 μL of DMSO was added to that plate to have a STD concentration of 300 μM. From the 300 μM DMSO STD plate, 5 μL was transferred into the remaining empty plate, and then 495 μL of a mixture of H2O and acetonitrile containing internal standard (1:1) was added to that plate to have a final STD concentration of 3 μM. A certain proportion of ultrapure water was used to dilute the diluent according to the peak shape. The concentrations of the standard samples were changed according to the LC-MS signal response.
Procedure for sample analysis: The plate was placed into the well plate autosampler. The samples were evaluated by LC-MS/MS analysis.
Data analysis: All calculations were carried out using Microsoft Excel.
The filtrate was analyzed and quantified against a standard of known concentration using LC coupled with mass spectral peak identification and quantitation. Solubility values of the test compound and control compound were calculated as follows:
[formula] • Any value of the compounds that was not within the specified limits was rejected and the experiment was repeated.

Pharmacokinetics in dogs = type: in vivo; details: IV bolus at 1 mg/kg and PO at 5 mg/kg; for bioavailability / clearance / half-life: male, dog, plasma; for bioavailability: beagle, oral, 5 mg/kg, read-out: F (%) oral bioavailability
Method: Dosing solutions were prepared at 1 mg/mL in 5% DMSO/40% PEG400/55% water. A dosing solution was administered to male beagle dogs (Approximately 9-14 kg, 3 dogs each group) via intravenous (IV) bolus at 1 mg/kg and by oral gavage (PO) at 5 mg/kg. The dosing volume was 1 mL/kg for IV administration and 5 mL/kg for oral gavage. Blood samples (˜0.3 mL each time point) were collected into tubes containing potassium ethylenediaminetetraacetic acid (K2EDTA) as the anticoagulant at 0.033, 0.083, 0.25, 0.5, 1, 2, 4, 8 and 24 hours post dose for IV administration and 0.083, 0.25, 0.5, 1, 2, 4, 8 and 24 hours post dose for PO administration. The blood samples were then centrifuged for 5 minutes in a centrifuge refrigerated at 4° C. The resultant plasma samples were analyzed using LC/MS/MS to determine concentrations of a test compound. Non-compartmental model with WinNonlin (Phoenix™, version 6.1) software was used to calculate pharmacokinetic (PK) parameters.

PI3K delta = molecular target: T1, PI3K delta (Homo sapiens, UniProt O00329); assay: Raji cell assay: phosphorylation of AKT in anti-IgM stimulated Raji cells (AlphaLISA); type: cell-based; details: pAKT, read-out: PI3K delta Raji cell (nM) cellular activity (IC50)
T1 construct: endogenous in cells; host or cells: Raji
T1 sequence (O00329 whole entry): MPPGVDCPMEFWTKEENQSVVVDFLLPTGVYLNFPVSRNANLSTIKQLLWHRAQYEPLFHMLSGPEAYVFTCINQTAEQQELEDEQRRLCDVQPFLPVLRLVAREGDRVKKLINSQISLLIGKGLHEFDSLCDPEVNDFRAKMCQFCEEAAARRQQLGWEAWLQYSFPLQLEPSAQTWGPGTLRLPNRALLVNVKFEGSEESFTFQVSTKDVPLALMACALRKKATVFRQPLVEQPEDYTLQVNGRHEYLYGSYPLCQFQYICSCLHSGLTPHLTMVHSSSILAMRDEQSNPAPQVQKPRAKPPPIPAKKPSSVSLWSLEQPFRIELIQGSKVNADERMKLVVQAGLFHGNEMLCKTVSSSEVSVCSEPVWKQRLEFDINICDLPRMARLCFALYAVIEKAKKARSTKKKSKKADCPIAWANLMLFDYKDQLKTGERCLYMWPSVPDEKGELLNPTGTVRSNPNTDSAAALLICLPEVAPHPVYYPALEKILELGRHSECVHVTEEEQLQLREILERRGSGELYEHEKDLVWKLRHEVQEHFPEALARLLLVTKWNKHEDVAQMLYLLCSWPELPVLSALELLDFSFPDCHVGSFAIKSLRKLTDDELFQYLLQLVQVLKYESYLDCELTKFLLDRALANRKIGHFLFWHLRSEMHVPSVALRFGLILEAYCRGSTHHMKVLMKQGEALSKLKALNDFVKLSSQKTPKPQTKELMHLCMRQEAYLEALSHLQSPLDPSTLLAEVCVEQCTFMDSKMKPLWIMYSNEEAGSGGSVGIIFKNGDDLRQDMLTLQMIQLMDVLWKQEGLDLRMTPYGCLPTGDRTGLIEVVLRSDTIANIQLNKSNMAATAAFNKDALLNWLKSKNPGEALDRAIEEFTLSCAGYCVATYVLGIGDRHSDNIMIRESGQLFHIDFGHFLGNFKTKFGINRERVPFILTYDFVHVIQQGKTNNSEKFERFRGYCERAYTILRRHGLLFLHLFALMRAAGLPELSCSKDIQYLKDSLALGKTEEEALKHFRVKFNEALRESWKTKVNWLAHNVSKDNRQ
T1 sequence (P27986 whole entry partner): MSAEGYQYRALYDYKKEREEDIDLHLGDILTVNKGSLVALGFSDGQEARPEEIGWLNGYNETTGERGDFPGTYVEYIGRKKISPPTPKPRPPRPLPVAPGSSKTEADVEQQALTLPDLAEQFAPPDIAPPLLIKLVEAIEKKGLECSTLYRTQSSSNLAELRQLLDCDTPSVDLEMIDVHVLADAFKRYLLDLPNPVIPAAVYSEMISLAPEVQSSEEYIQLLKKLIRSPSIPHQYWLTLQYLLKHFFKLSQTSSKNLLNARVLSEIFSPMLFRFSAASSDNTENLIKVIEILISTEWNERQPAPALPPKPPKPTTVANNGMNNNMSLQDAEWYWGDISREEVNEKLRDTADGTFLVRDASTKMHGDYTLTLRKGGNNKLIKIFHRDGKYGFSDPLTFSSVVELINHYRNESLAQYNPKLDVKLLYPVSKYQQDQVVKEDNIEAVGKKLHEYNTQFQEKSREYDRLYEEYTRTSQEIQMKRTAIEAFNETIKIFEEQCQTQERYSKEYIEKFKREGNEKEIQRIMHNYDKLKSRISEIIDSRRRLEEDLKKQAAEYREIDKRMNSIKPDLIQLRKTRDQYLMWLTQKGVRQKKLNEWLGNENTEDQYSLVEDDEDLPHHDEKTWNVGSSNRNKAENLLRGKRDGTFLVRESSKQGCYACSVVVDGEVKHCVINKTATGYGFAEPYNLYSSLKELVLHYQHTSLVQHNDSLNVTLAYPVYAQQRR
Method: This study aims to determine the inhibitory effect of compounds on PI3K gamma and PI3K delta in corresponding cell based assays. PI3K gamma activity was reflected by phosphorylation of AKT in C5a stimulated RAW264.7 cells, and PI3K delta activity was reflected by phosphorylation of AKT in anti-IgM stimulated Raji cells. Phosphorylation of AKT in cells was determined using AlphaLISA technology from PerkinElmer.
Raji cell assay: Prepare Passage 11 Raji cell and add 6 μL of 60K cells per well in 384-well plate. Centrifuge at 500 RPM for 30 s and incubate for 2 hours at 37° C., 5% CO2. Add 30 nL compound by Echo and incubate for 30 min at 37° C. Add 2 μL of IgM (4×, 12 μg/mL) per well, centrifuge at 500 RPM for 30 s and incubate for 10 min at 37° C. Add 2 μL of 5× lysis buffer by Multidrop. Shake 10 min on a plate shaker. Add 5 μL acceptor mix provided in the kit. Centrifuge at 1000 RPM for 1 min. Add 5 μL donor mix provided in the kit. Centrifuge at 1000 RPM for 1 min. Then incubate for 2 hours at 25° C., keep the plate in dark. Read AlphaLISA signal on Envision.
Data analysis: Fit the cpd IC50 from non-linear regression equation. Y=Bottom+(Top−Bottom)/(1+10^((Log IC50−X)*Hill Slope)) X: Log of cpd concentration Y: Inhibition

PI3Kδ = PI3Kδ (Homo sapiens, UniProt O00329); assay: ADP-Glo luminescent assay, enzymatic activity of PI3K delta; type: biochemical; details: ATP 25 μM; read-out: PI3K delta (nM) inhibitory activity (IC50)
PI3Kδ, sequence (O00329 whole entry, species assumed, canonical isoform): as the sequence (O00329 whole entry) above
PI3Kδ, sequence (P27986 whole entry partner, species assumed, canonical isoform): as the sequence (P27986 whole entry partner) above
Method: Enzymatic activity of PI3K isoforms: Enzymatic activity of the class I PI3K isoforms in the presence of the compounds of Table 1 was measured using ADP-Glo luminescent assay against PI3Kα, PI3Kβ, PI3Kδ and PI3Kγ with ATP concentration at 25 μM. […] The compounds would be tested from 1 or 10 μM, 3-fold dilution for 10 doses, in duplicate.
Compound preparation: Dilute a compound to 100× of the final desired highest inhibitor concentration in reaction by 100% DMSO. Transfer 100 μl of this compound dilution to a well in a 96-well plate and serially dilute it with DMSO for a total of 10 concentrations.
Kinase reaction: Prepare a solution of PI3K in 1× kinase buffer at 2-fold the final concentration of each reagent in the assay. Control wells contain 1× kinase buffer without enzyme. Prepare substrate solution of PIP2 substrate and ATP in 1× kinase reaction buffer at 2-fold of the final concentration. Add concentration substrate solution to each well to the final concentration. Cover the assay plate, shake to mix, and incubate at room temperature for 1 hour. Add 5 μl of ADP-Glo reagent to each well to stop the reaction. Mix briefly with a quick spin, shake slowly on the shaker for 120 min. Add 10 ul Kinase Detection Reagent to each well, shake 1 min, equilibrate for 30 min before reading on a luminescence plate reader.
Data Analysis: Convert RLU values to percent inhibition values as Percent inhibition=(max−sample RLU)/(max−min)*100. “min”—no enzyme control; “max”—DMSO control. Fit the data in XLFit excel add-in version 5.4.0.8 to obtain IC50 values. Y=Bottom+(Top−Bottom)/(1+(IC50/X)^HillSlope).

Row | solubility at 2 h [1] | fold improvement over AZ-17 in kinetic solubility test ([1]; physiologic pH) | F (%) oral bioavailability (Pharmacokinetics in dogs; beagle dogs) | Vssobs (Pharmacokinetics in dogs; beagle dogs) | bioavailability (Pharmacokinetics in dogs) | clearance (Pharmacokinetics in dogs; beagle dogs) | half-life (Pharmacokinetics in dogs; beagle dogs) | IC50 (PI3K delta) | IC50 (PI3Kδ) | SMILES
1 | 240 µM (≈ 108 µg/mL) | > 200 fold | 108% | 2.1 L/kg | 107% | 6.1 mL/min/kg | 7.2 h | 2160 nM | 1170 nM | CC(=O)Nc1nc(C)c(-c2cc3c(c(NS(C)(=O)=O)n2)C(=O)N([C@@H](C)C2CC2)C3)s1 [Compound 20, (S)-N-(5-(2-(1-cyclopropylethyl)-4-(methylsulfonamido)-3-oxo-2,3-dihydro-1H-pyrrolo[3,4-c]pyridin-6-yl)-4-methylthiazol-2-yl)acetamide]
2 | 9.6 µM (≈ 4.24 µg/mL) |  |  | 2.7 L/kg | > 68% | 4.5 mL/min/kg | 9.1 h | 1960 nM | > 1000 nM | CC(=O)Nc1nc(C)c(-c2cc3c(c(N4CCOCC4)n2)C(=O)N([C@@H](C)C2CC2)C3)s1 [Compound 34, (S)-N-(5-(2-(1-cyclopropylethyl)-4-morpholino-3-oxo-2,3-dihydro-M-pyrrolo[3,4-c]pyridin-6-yl)-4-methylthiazol-2-yl)acetamide]
